Reference: patent publication US9732088B2, “C2-carbocyclic iminothiazine dioxides as BACE inhibitors, compositions, and their use” (Merck Sharp & Dohme Corp., priority 2014, dated 2017)

What was measured:
BACE-1 = BACE-1 (Homo sapiens (Human), UniProt P56817); assay: BACE-1 Cellular Assay (Aβ in HEK293-APPswe/lon cells); assay type: cell-based; settings: 4 hours
Protocol: Assay 3: BACE-1 Cellular Assay
Certain compounds of the invention, identified in the tables herein, were determined to be potent inhibitors of BACE-1 in the following cellular assay. HEK293 cells are obtained from the American Type Culture Collection (ATCC) and stably transfected with the human amyloid precursor protein cDNA containing the FAD Swedish (enhances β-secretase processing) and London (enhances Aβ42 cleavage) mutations. A HEK293 stable clone with Aβ expression (HEK293-APP^swe/lon) is identified and maintained at 37° C., 5% CO2 in the ATCC-recommended growth media supplemented with hygromycin. […] Aβ40 or Aβ42 are measured in 15 μl of media using a mesoscale based ELISA assay. Full length Aβ40 and Aβ42 peptides are captured with the N-terminal specific biotinylated-WO2 monoclonal antibody and detected using either the ruthenylated Aβ40 C-terminal specific monoclonal antibody, G2-10 or the ruthenylated Aβ42 C-terminal specific monoclonal antibody G2-11 respectively. Raw electrochemiluminescnce values are measured using a Mesoscale Sector Imager plate reader and are plotted as a function of compound concentration. IC50 values are interpolated from the data using nonlinear regression analysis (Sigmoidal dose response fit with variable slope) of the data using GraphPad Prism software.

CSF Aβ40 = assay: Aβ Reduction In Vivo (rat CSF Aβ40); settings: male CD IGS rats, 10 mg/kg oral gavage, CSF at 3 hours, change vs vehicle
Protocol: Assay 5: Aβ Reduction In Vivo
The in vivo efficacy and/or potency of BACE inhibitors (test compounds) can be evaluated using a variety of animal models, including mouse, rat, dog, and monkey, and these animals can be wild type, transgenic, or gene knockout animals.
Generally, animals are administered (by oral gavage, intravenous injection, or by other suitable route) a test compound in doses ranging from, for example, 0.1 mg/kg (mg of compound per kg of animal body weight) to 100 mg/kg formulated in vehicles, such as cyclodextrin, phosphate buffer, hydroxypropyl methylcellulose or other suitable vehicles. One to twenty-four hours following the administration of compound, animals are sacrificed, and tissues (for example, brain, cerebrospinal fluid (CSF), and/or plasma) are collected for analysis of Aβ levels and/or test compound concentrations (Dovey et al., 2001, Journal of Neurochemistry, 76, 173-181). Tissue samples are processed appropriately and then analyzed for the presence of Aβ by specific sandwich ELISA assays based on electrochemiluminescence (ECL) technology.
For example, in the following assay for which data are reported below, male CD IGS rats (body weight approximately 120 g, Charles River Laboratories, Kingston, N.Y.) were used to assess lowering of CSF levels of Aβ1-40 (Aβ40) in the presence of compounds of the invention. At time 0, animals were administered by oral gavage a test compound at a dose of 10 mg/kg in 20% hydroxypropyl-β-cyclodextrin (dosing volume 5 mL/kg). A separate group of animals received 20% hydroxypropyl-β-cyclodextrin alone to serve as the vehicle control group. Three hours after administration, the rats were euthanized with excess CO2. Immediately following euthanasia, CSF was collected from the cisterna magna and quickly frozen on dry ice. Samples were stored at −80° C. until quantification of Aβ40 levels.
The measurement of endogenous rat Aβ40 in CSF relied on the 585 antibody (Ab585, BioSource, NONO585), which specifically recognizes the N-terminal sequence of rodent Aβ40, and on the monoclonal antibody, G2-10, which specifically recognizes the free C-terminus of Aβ40. Ab585 was labeled with biotin (b-Ab585) by first dialyzing the antibody sample extensively versus PBS (pH 7.8) to remove impurities, followed by dilution to between 1 and 2 mg/mL protein concentration. EZ-Link Sulfo-NHS-LC-Biotin (Pierce) was dissolved in PBS (pH 7.8) at a concentration of 1 mg/mL immediately prior to use. Ab585 was labeled with EZ-Link Sulfo-NHS-LC-biotin using a 10:1 biotin:antibody ratio by incubation at room temperature for 1 hour. The labeling reaction was quenched by addition of 1.0 M glycine to a final concentration of 0.1 M followed by 10 minute incubation at room temperature. Glycine was removed by extensive dialysis versus PBS.
For rat CSF Aβ40 determinations, a calibration curve of various concentrations of synthetic rodent Aβ40 was assayed in parallel with rat CSF samples in duplicate using an avidin-coated 96-well MSD plate (Mesoscale Diagnostics). Either 50 μL of rodent Aβ40 standards diluted in PBS (pH 7.4) supplemented with 1% BSA and 1% Tween-20 (standard diluent buffer) or 40 μL of standard diluent buffer plus 10 μL rat CSF were added to each 96 well avidin-coated plate. To each well was added 50 μL of 0.1 M HEPES (pH 7.5), 2% BSA, 2% Tween-20, 0.3 M NaCl (2×Aβ40 buffer) supplemented with the b-Ab585 capture and ruthenylated-G2-10 detection antibodies diluted to 1 μg/mL and 0.5 μg/mL, respectively. Plates were shaken for 1 min on a microplate shaker, covered to protect from light and incubated overnight (˜16 h) at 4° C. For detection, plates were first washed twice with 100 μL of 1×CSF Aβ40 buffer followed by addition of 160 μL of 1×MSD read buffer-T (Mesoscale Diagnostics) diluted in 1×CSF Aβ40 buffer. Plates were read on a MSD Sector Imager 2400 model (Mesoscale Diagnosotics). […]

rat Mdr1a (P-gp) = rat Mdr1a (P-gp) (Rattus norvegicus, UniProt Q6PSM0); assay: P-Glycoprotein (P-gp) Efflux Susceptibility Assay; assay type: in vitro ADME; settings: LLC-PK1, pH 7.4; rat LLC-Mdr1a cells, B-A/A-B Papp ratio at 3 h; method 0.1 μM; read-out: P-gp efflux assay (rMDR1a BAAB)
Chain of rat Mdr1a (P-gp) (Q6PSM0 1-1272): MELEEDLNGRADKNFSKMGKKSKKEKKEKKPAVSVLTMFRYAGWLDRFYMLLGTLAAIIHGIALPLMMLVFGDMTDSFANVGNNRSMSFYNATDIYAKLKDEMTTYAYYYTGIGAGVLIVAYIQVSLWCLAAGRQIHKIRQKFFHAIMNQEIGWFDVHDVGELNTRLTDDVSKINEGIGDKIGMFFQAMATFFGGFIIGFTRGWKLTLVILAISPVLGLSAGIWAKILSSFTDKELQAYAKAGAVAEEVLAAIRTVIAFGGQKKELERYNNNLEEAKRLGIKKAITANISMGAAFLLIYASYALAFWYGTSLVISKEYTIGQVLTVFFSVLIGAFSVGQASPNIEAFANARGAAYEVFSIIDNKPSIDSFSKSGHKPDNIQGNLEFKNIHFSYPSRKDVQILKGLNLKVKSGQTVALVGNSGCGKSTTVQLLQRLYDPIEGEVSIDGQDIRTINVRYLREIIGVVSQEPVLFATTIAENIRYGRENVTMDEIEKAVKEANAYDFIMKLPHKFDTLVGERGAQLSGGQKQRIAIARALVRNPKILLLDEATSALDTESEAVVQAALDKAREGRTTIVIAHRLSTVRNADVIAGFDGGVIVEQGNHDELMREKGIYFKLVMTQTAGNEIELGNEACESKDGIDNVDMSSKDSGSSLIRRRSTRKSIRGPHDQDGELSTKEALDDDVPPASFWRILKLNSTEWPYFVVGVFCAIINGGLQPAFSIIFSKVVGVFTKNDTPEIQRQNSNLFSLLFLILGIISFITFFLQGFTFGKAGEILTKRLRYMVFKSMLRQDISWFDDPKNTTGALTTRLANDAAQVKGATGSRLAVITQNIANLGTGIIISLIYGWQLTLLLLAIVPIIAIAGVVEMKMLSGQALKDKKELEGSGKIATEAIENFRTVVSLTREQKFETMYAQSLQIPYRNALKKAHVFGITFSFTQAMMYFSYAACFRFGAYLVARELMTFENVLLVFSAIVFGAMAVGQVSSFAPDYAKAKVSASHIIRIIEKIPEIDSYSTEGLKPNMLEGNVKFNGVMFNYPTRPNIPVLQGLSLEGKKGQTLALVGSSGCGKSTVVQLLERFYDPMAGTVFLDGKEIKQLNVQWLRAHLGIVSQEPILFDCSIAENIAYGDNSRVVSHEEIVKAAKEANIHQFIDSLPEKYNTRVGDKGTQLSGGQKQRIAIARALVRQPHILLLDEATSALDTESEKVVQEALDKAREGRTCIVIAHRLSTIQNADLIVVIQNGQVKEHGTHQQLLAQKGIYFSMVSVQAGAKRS
Protocol: Assay 6: P-Glycoprotein (P-Gp) Efflux Susceptibility Assay
As P-gp is expressed at the blood-brain-barrier, among other tissues, lower P-gp efflux ratio values are associated with a better ability to cross the blood-brain-barrier to reach the site of BACE-1 expression in the central nervous system. P-gp efflux ratios are measured in cellular assays using cell lines that express P-gp from a number of species including rat, monkey, and human. The following assay was used to measure the rat P-gp efflux ratios, which are believed to be the most sensitive measure of P-gp susceptibility, for the compounds of the invention (test compounds) reported in the tables below.
The bidirectional transport of test compounds was conducted across pig kidney epithelial (LLC-PK1) cell monolayers. Native LLC-PK1 cells were obtained from The Netherlands Cancer Institute (Amsterdam, The Netherlands), and used under a license agreement. LLC-PK1 cells expressing a cDNA encoding rat Mdr1a (rat LLC-Mdr1a) were made in-house by stable transfection of LLC-PK1 cells with a rat MDR1 cDNA. LLC-PK1 and rat LLC-Mdr1a cell lines were cultured in 96-well transwell culture plates. […] Substrate solution (150 μL) was added to either the apical (A) or the basolateral (B) compartment of the culture plate, and buffer (150 μL; HBSS, 10 mM HEPES, pH 7.4) was added to the compartment opposite to that containing the compound. At t=3 h, 50 μL samples were removed from both sides of monolayers dosed with test compound and placed in 96 well plates, internal standard (50 μL 1 μM labetolol) was added to the samples. Samples were analyzed by LC/MS/MS using an Applied Biosystems SCIEX API 5000 triple quadruple mass spectrometry (Concord, ON, Canada) with a TurbolonSpray ion source in the positive ion mode. A Thermo Scientific Transcend LX-2 system (Franklin, Mass.) was coupled to the API 5000 with a flow rate of 800 μL/min to direct sample into the mass spectrometer. A Waters ACQUITY UPLC T3 (2×30 mm, 1.7 μm; Milford, Mass.) column was used for sample analysis. Mobile phase A consisted of 0.1% formic acid in water. Mobile phase B was acetonitrile with 0.1% formic acid. A gradient elution program was utilized where the solvent composition was held at 5% B for 0.25 min, changed from 5% B to 95% B at 0.25 min, and followed by holding at 95% B for 0.5 min, then, went back to 5% B at 0.75 min. The column was then re-equilibrated at the original solvent composition for 0.5 min. Mass spectrometric detection was accomplished by multiple reaction monitoring (MRM) of transitions unique to each compound. Sample concentration was obtained by extrapolation from the standard curve. Verapamil (1 μM) was used as the positive control to assess the functional activity of Pgp. The experiment was performed in triplicate.
The Papp was calculated by the following formula for samples taken at t=3 h:
[formula] where “Volume of Receptor Chamber” is 0.15 mL, “Area of membrane” is 0.11 cm^2, the “Initial Concentration” is the sum of the concentration measured in the donor compartment plus the concentration measured in the receiver compartment at t=3 h, “Δ in Concentration” is the concentration in the receiver compartment at 3 h, and “Δ in Time” is the incubation time (3×60×60=10800 s). Papp was expressed as 10^−6 cm/s.
The Papp reported in the table below is the average of the Papp for transport from A to B and Papp for transport from B to A at t=3 hr.
The B-A/A-B ratio (BAAB) was calculated by dividing the Papp from B to A by the Papp from A to B at t=3 h: […]

Chain of BACE-1 (P56817 46-501): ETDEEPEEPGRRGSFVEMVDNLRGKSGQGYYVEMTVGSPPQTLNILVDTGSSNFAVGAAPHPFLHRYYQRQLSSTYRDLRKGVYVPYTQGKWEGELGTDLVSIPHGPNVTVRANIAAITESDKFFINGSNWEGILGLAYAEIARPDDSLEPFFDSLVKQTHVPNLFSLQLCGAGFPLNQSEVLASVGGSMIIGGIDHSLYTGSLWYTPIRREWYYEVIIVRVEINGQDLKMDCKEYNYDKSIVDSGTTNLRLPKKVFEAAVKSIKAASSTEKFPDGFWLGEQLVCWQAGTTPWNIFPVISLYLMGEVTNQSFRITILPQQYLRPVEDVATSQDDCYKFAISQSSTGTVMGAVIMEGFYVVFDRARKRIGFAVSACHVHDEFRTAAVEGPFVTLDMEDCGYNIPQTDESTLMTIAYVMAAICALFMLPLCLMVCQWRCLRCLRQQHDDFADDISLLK

| IC50 (BACE-1) | efflux ratio at 3 h (rat Mdr1a (P-gp)) | Structure (SMILES) | Aβ reduction in vivo in rat (Δ% CSF Aβ40 @ 10 mpk) (CSF Aβ40) |
| --- | --- | --- | --- |
| 24 nM | 6.1 | C[C@@]1(c2cc(Nc3nccc4cc(C#N)cnc34)ccc2F)CS(=O)(=O)[C@@](CF)(C2CC2)C(N)=N1 [Example 1, 8-({3-[(3R,6S)-6-cyclopropyl-6-(fluoromethyl)-5-imino-3-methyl-1,1-dioxidothiomorpholin-3-yl]-4-fluorophenyl}amino)-1,7-naphthyridine-carbonitrile] | −58% |
| 10 nM |  | COc1cnc2c(Nc3cc([C@]4(C)CS(=O)(=O)[C@@](C)(C5CC5)C(N)=N4)c(F)cn3)ccnc2n1 [Example 35, (3R,6S)-5-amino-6-cyclopropyl-3-(5-fluoro-2-((3-methoxypyrido[2,3-b]pyrazin-8-yl)amino)pyridin-4-yl)-3,6-dimethyl-3,6-dihydro-2H-1,4-thiazine 1,1-dioxide] | −75% |
| 3.5 nM |  | COc1cnc2c(Nc3ccc(F)c([C@]4(C)CS(=O)(=O)[C@@](C)(C5CC5)C(N)=N4)c3)ccnc2c1 [Example 36, (3R,6S)-5-amino-6-cyclopropyl-3-(2-fluoro-5-((7-methoxy-1,5-naphthyridin-4-yl)amino)phenyl)-3,6-dimethyl-3,6-dihydro-2H-1,4-thiazine 1,1-dioxide] | −67% |
